Data on 24 molecules can be found in patent US6518243B1, “Desleucyl glycopeptide antibiotics and methods of making same” (Trustees of Princeton University, priority 1999, dated 2003).

In the assay the test system is E. faecalis (CL 4877). The assay is described as follows: Zone of inhibition screen, 96 well agar array format. It counts as cell-based. Also on record: scale not given here. The following applies: zone of inhibition relative to 1 mg/ml stock solution of p-chlorobiphenylvancomycin. On the procedure: The antibacterial activity of each of the compounds against the bacterial strains E. faceium (ATCC 49624), S. epidermidis (ATCC 12228), S. aureus (ATCC 29213), E. faecalis (CL 4877) and E. faecalis (ATCC 292121) was tested. Each of the compounds was screened in a 96 will agar array format.
As for `CC1OC(OC2C(Oc3c4cc5cc3Oc3ccc(cc3Cl)C(O)C3NC(=O)C(NC(=O)C5NC(=O)C(CC(N)=O)NC(=O)C(NC(=O)c5cnccn5)C(O)c5ccc(c(Cl)c5)O4)c4ccc(O)c(c4)-c4c(O)cc(O)cc4C(C(=O)O)NC3=O)OC(CO)C(O)C2O)CC(C)(NCc2ccc(-c3ccc(Cl)cc3)cc2)C1O` (stereo not drawn) [Compound 103], the “zone score, E. faecalis CL 4877” value is 2. Turning to `CC1OC(OC2C(Oc3c4cc5cc3Oc3ccc(cc3Cl)C(O)C3NC(=O)C(NC(=O)C5NC(=O)C(CC(N)=O)NC(=O)C(NC(=O)c5nccnc5N)C(O)c5ccc(c(Cl)c5)O4)c4ccc(O)c(c4)-c4c(O)cc(O)cc4C(C(=O)O)NC3=O)OC(CO)C(O)C2O)CC(C)(NCc2ccc(-c3ccc(Cl)cc3)cc2)C1O` (stereo not drawn) [Compound 105], the “zone score, E. faecalis CL 4877” value came to 2. As to `CC(=O)NC(CCCNC(=N)N)C(=O)NC1C(=O)NC(CC(N)=O)C(=O)NC2C(=O)NC3C(=O)NC(C(=O)NC(C(=O)O)c4cc(O)cc(O)c4-c4cc3ccc4O)C(O)c3ccc(c(Cl)c3)Oc3cc2cc(c3OC2OC(CO)C(O)C(O)C2OC2CC(C)(NCc3ccc(-c4ccc(Cl)cc4)cc3)C(O)C(C)O2)Oc2ccc(cc2Cl)C1O` (stereo not drawn) [Compound 111], the “zone score, E. faecalis CL 4877” value is 2. Turning to `CC(=O)NC(CC(N)=O)C(=O)NC1C(=O)NC(CC(N)=O)C(=O)NC2C(=O)NC3C(=O)NC(C(=O)NC(C(=O)O)c4cc(O)cc(O)c4-c4cc3ccc4O)C(O)c3ccc(c(Cl)c3)Oc3cc2cc(c3OC2OC(CO)C(O)C(O)C2OC2CC(C)(NCc3ccc(-c4ccc(Cl)cc4)cc3)C(O)C(C)O2)Oc2ccc(cc2Cl)C1O` (stereo not drawn) [Compound 113], the “zone score, E. faecalis CL 4877” value came to 2.

With `CC(=O)NC(C(=O)NC1C(=O)NC(CC(N)=O)C(=O)NC2C(=O)NC3C(=O)NC(C(=O)NC(C(=O)O)c4cc(O)cc(O)c4-c4cc3ccc4O)C(O)c3ccc(c(Cl)c3)Oc3cc2cc(c3OC2OC(CO)C(O)C(O)C2OC2CC(C)(NCc3ccc(-c4ccc(Cl)cc4)cc3)C(O)C(C)O2)Oc2ccc(cc2Cl)C1O)C(C)O` (stereo not drawn) [Compound 125], the “zone score, E. faecalis CL 4877” value is 2.

Regarding `CC1OC(OC2C(Oc3c4cc5cc3Oc3ccc(cc3Cl)C(O)C3NC(=O)C(NC(=O)C5NC(=O)C(CC(N)=O)NC(=O)C(NC(=O)C(NC(N)=O)NC(N)=O)C(O)c5ccc(c(Cl)c5)O4)c4ccc(O)c(c4)-c4c(O)cc(O)cc4C(C(=O)O)NC3=O)OC(CO)C(O)C2O)CC(C)(NCc2ccc(-c3ccc(Cl)cc3)cc2)C1O` (stereo not drawn) [Compound 126], the “zone score, E. faecalis CL 4877” value was determined as 2.

For the molecule `CC1OC(OC2C(Oc3c4cc5cc3Oc3ccc(cc3Cl)C(O)C(NC(=O)C(O)C(O)C(O)CO)C(=O)NC(CC(N)=O)C(=O)NC5C(=O)NC3C(=O)NC(C(=O)NC(C(=O)O)c5cc(O)cc(O)c5-c5cc3ccc5O)C(O)c3ccc(c(Cl)c3)O4)OC(CO)C(O)C2O)CC(C)(NCc2ccc(-c3ccc(Cl)cc3)cc2)C1O` (stereo not drawn) [Compound 127], the “zone score, E. faecalis CL 4877” value is reported as 2. Consider `CC1OC(OC2C(Oc3c4cc5cc3Oc3ccc(cc3Cl)C(O)C3NC(=O)C(NC(=O)C5NC(=O)C(CC(N)=O)NC(=O)C(NC(=O)C(CC(N)=O)NC(=O)OC(C)(C)C)C(O)c5ccc(c(Cl)c5)O4)c4ccc(O)c(c4)-c4c(O)cc(O)cc4C(C(=O)O)NC3=O)OC(CO)C(O)C2O)CC(C)(NCc2ccc(-c3ccc(Cl)cc3)cc2)C1O` (stereo not drawn) [Compound 133], for which the “zone score, E. faecalis CL 4877” value is 2.

For the molecule `CC1OC(OC2C(Oc3c4cc5cc3Oc3ccc(cc3Cl)C(O)C3NC(=O)C(NC(=O)C5NC(=O)C(CC(N)=O)NC(=O)C(NC(=O)C(CCCNC(=N)N)NC(=O)CNC(=O)OC(C)(C)C)C(O)c5ccc(c(Cl)c5)O4)c4ccc(O)c(c4)-c4c(O)cc(O)cc4C(C(=O)O)NC3=O)OC(CO)C(O)C2O)CC(C)(NCc2ccc(-c3ccc(Cl)cc3)cc2)C1O` (stereo not drawn) [Compound 138], the “zone score, E. faecalis CL 4877” value was 2. In the case of `CC1OC(OC2C(Oc3c4cc5cc3Oc3ccc(cc3Cl)C(O)C3NC(=O)C(NC(=O)C5NC(=O)C(CC(N)=O)NC(=O)C(NC(=O)CNC(=O)CNC(=O)OC(C)(C)C)C(O)c5ccc(c(Cl)c5)O4)c4ccc(O)c(c4)-c4c(O)cc(O)cc4C(C(=O)O)NC3=O)OC(CO)C(O)C2O)CC(C)(NCc2ccc(-c3ccc(Cl)cc3)cc2)C1O` (stereo not drawn) [Compound 140], the “zone score, E. faecalis CL 4877” value is on record as 2. Turning to `CC1OC(OC2C(Oc3c4cc5cc3Oc3ccc(cc3Cl)C(O)C3NC(=O)C(NC(=O)C5NC(=O)C(CC(N)=O)NC(=O)C(NC(=O)CC5OCC6CN7CC8C9=CC(=O)C(=O)C([N+](=O)[O-])=C9NC8C5C6CC7C)C(O)c5ccc(c(Cl)c5)O4)c4ccc(O)c(c4)-c4c(O)cc(O)cc4C(C(=O)O)NC3=O)OC(CO)C(O)C2O)CC(C)(NCc2ccc(-c3ccc(Cl)cc3)cc2)C1O` (stereo not drawn) [Compound 144], the “zone score, E. faecalis CL 4877” value is on record as 2. With `CC1OC(OC2C(Oc3c4cc5cc3Oc3ccc(cc3Cl)C(O)C3NC(=O)C(NC(=O)C5NC(=O)C(CC(N)=O)NC(=O)C(NC(=O)CN(C)C(=N)N)C(O)c5ccc(c(Cl)c5)O4)c4ccc(O)c(c4)-c4c(O)cc(O)cc4C(C(=O)O)NC3=O)OC(CO)C(O)C2O)CC(C)(NCc2ccc(-c3ccc(Cl)cc3)cc2)C1O` (stereo not drawn) [Compound 145] the figure was 2; with `CC1OC(OC2C(Oc3c4cc5cc3Oc3ccc(cc3Cl)C(O)C(NC(=O)C3(O)CC(O)C(O)C(O)C3)C(=O)NC(CC(N)=O)C(=O)NC5C(=O)NC3C(=O)NC(C(=O)NC(C(=O)O)c5cc(O)cc(O)c5-c5cc3ccc5O)C(O)c3ccc(c(Cl)c3)O4)OC(CO)C(O)C2O)CC(C)(NCc2ccc(-c3ccc(Cl)cc3)cc2)C1O` (stereo not drawn) [Compound 146], 2.

Consider `CC1OC(OC2C(Oc3c4cc5cc3Oc3ccc(cc3Cl)C(O)C(NC(=O)C(O)C3OC(=O)C(O)C3O)C(=O)NC(CC(N)=O)C(=O)NC5C(=O)NC3C(=O)NC(C(=O)NC(C(=O)O)c5cc(O)cc(O)c5-c5cc3ccc5O)C(O)c3ccc(c(Cl)c3)O4)OC(CO)C(O)C2O)CC(C)(NCc2ccc(-c3ccc(Cl)cc3)cc2)C1O` (stereo not drawn) [Compound 155], for which the “zone score, E. faecalis CL 4877” value is recorded as 2. For `CC1OC(OC2C(Oc3c4cc5cc3Oc3ccc(cc3Cl)C(O)C3NC(=O)C(NC(=O)C5NC(=O)C(CC(N)=O)NC(=O)C(NC(=O)C=O)C(O)c5ccc(c(Cl)c5)O4)c4ccc(O)c(c4)-c4c(O)cc(O)cc4C(C(=O)O)NC3=O)OC(CO)C(O)C2O)CC(C)(NCc2ccc(-c3ccc(Cl)cc3)cc2)C1O` (stereo not drawn) [Compound 159], the “zone score, E. faecalis CL 4877” value is given as 2.

Turning to `CC1OC(OC2C(Oc3c4cc5cc3Oc3ccc(cc3Cl)[C@@H](O)[C@@H](NC(=O)CNC(=O)CNC(=O)CNC(=O)c3ccccc3)C(=O)N[C@@H](CC(N)=O)C(=O)N[C@H]5C(=O)NC3C(=O)N[C@H](C(=O)N[C@@H](C(=O)O)c5cc(O)cc(O)c5-c5cc3ccc5O)[C@H](O)c3ccc(c(Cl)c3)O4)OC(CO)C(O)C2O)CC(C)(NCc2ccc(-c3ccc(Cl)cc3)cc2)C1O` (stereo partly drawn) [Compound 161], the “zone score, E. faecalis CL 4877” value amounted to 2. As for `CC1OC(OC2C(Oc3c4cc5cc3Oc3ccc(cc3Cl)[C@@H](O)[C@@H](NC(=O)CNC(N)=O)C(=O)N[C@@H](CC(N)=O)C(=O)N[C@H]5C(=O)NC3C(=O)N[C@H](C(=O)N[C@@H](C(=O)O)c5cc(O)cc(O)c5-c5cc3ccc5O)[C@H](O)c3ccc(c(Cl)c3)O4)OC(CO)C(O)C2O)CC(C)(NCc2ccc(-c3ccc(Cl)cc3)cc2)C1O` (stereo partly drawn) [Compound 162], the “zone score, E. faecalis CL 4877” value was 2. For `CC1OC(OC2C(Oc3c4cc5cc3Oc3ccc(cc3Cl)[C@@H](O)[C@@H](NC(=O)[C@H](O)CCCNC(=N)N)C(=O)N[C@@H](CC(N)=O)C(=O)N[C@H]5C(=O)NC3C(=O)N[C@H](C(=O)N[C@@H](C(=O)O)c5cc(O)cc(O)c5-c5cc3ccc5O)[C@H](O)c3ccc(c(Cl)c3)O4)OC(CO)C(O)C2O)CC(C)(NCc2ccc(-c3ccc(Cl)cc3)cc2)C1O` (stereo partly drawn) [Compound 165], the “zone score, E. faecalis CL 4877” value is reported as 2.

Regarding `CC1OC(OC2C(Oc3c4cc5cc3Oc3ccc(cc3Cl)[C@@H](O)[C@@H](NC(=O)[C@H]3CC(=O)NC(=O)N3)C(=O)N[C@@H](CC(N)=O)C(=O)N[C@H]5C(=O)NC3C(=O)N[C@H](C(=O)N[C@@H](C(=O)O)c5cc(O)cc(O)c5-c5cc3ccc5O)[C@H](O)c3ccc(c(Cl)c3)O4)OC(CO)C(O)C2O)CC(C)(NCc2ccc(-c3ccc(Cl)cc3)cc2)C1O` (stereo partly drawn) [Compound 168], the “zone score, E. faecalis CL 4877” value is recorded as 2. As for `CC1OC(OC2C(Oc3c4cc5cc3Oc3ccc(cc3Cl)[C@@H](O)[C@@H](NC(=O)[C@@H]3CCC(=O)N3)C(=O)N[C@@H](CC(N)=O)C(=O)N[C@H]5C(=O)NC3C(=O)N[C@H](C(=O)N[C@@H](C(=O)O)c5cc(O)cc(O)c5-c5cc3ccc5O)[C@H](O)c3ccc(c(Cl)c3)O4)OC(CO)C(O)C2O)CC(C)(NCc2ccc(-c3ccc(Cl)cc3)cc2)C1O` (stereo partly drawn) [Compound 169], the “zone score, E. faecalis CL 4877” value amounted to 2. For `CC1OC(OC2C(Oc3c4cc5cc3Oc3ccc(cc3Cl)[C@@H](O)[C@@H](NC(=O)CS(C)(=O)=O)C(=O)N[C@@H](CC(N)=O)C(=O)N[C@H]5C(=O)NC3C(=O)N[C@H](C(=O)N[C@@H](C(=O)O)c5cc(O)cc(O)c5-c5cc3ccc5O)[C@H](O)c3ccc(c(Cl)c3)O4)OC(CO)C(O)C2O)CC(C)(NCc2ccc(-c3ccc(Cl)cc3)cc2)C1O` (stereo partly drawn) [Compound 171], the “zone score, E. faecalis CL 4877” value amounted to 2. As for `CC(=O)CC(=O)NCC(=O)N[C@H]1C(=O)N[C@@H](CC(N)=O)C(=O)N[C@H]2C(=O)NC3C(=O)N[C@H](C(=O)N[C@@H](C(=O)O)c4cc(O)cc(O)c4-c4cc3ccc4O)[C@H](O)c3ccc(c(Cl)c3)Oc3cc2cc(c3OC2OC(CO)C(O)C(O)C2OC2CC(C)(NCc3ccc(-c4ccc(Cl)cc4)cc3)C(O)C(C)O2)Oc2ccc(cc2Cl)[C@H]1O` (stereo partly drawn) [Compound 172], the “zone score, E. faecalis CL 4877” value amounted to 2. Regarding `CC(=O)NCC(=O)N[C@H]1C(=O)N[C@@H](CC(N)=O)C(=O)N[C@H]2C(=O)NC3C(=O)N[C@H](C(=O)N[C@@H](C(=O)O)c4cc(O)cc(O)c4-c4cc3ccc4O)[C@H](O)c3ccc(c(Cl)c3)Oc3cc2cc(c3OC2OC(CO)C(O)C(O)C2OC2CC(C)(NCc3ccc(-c4ccc(Cl)cc4)cc3)C(O)C(C)O2)Oc2ccc(cc2Cl)[C@H]1O` (stereo partly drawn) [Compound 179], the “zone score, E. faecalis CL 4877” value is 2. `CC(=O)NC(CCCNC(=N)N)C(=O)NC1C(=O)NC(CC(N)=O)C(=O)NC2C(=O)NC3C(=O)NC(C(=O)NC(C(=O)O)c4cc(O)cc(O)c4-c4cc3ccc4O)C(O)c3ccc(c(Cl)c3)Oc3cc2cc(c3OC2OC(CO)C(O)C(O)C2OC2CC(C)(NCc3ccc(-c4ccc(Cl)cc4)cc3)C(O)C(C)O2)Oc2ccc(cc2Cl)C1O` (stereo not drawn) [Compound 184]: the “zone score, E. faecalis CL 4877” value was determined as 2.
